The text below walks through data of US7585875B2, “Substituted pyrazolo[1,5-a]pyridine compounds and their methods of use” (Avigen, Inc., priority 2006, dated 2009).

Counter-ions that a name gives are not always drawn.

The first data set has as its system mechanical allodynia after chronic constriction injury (CCI) to the sciatic nerve. Nature of the data set: Mechanical allodynia by response to von Frey fibers, rat chronic constriction injury (CCI) model. The class given is in vivo, male Sprague-Dawley rats. As to conditions: 10 mg/kg IP, 2 hr post dosing. The source says: Chronic Constriction Injury: Heat and cold allodynia responses as well as mechanical allodynia sensations can be evaluated as described below in rats having a chronic constriction injury (CCI). A unilateral mononeuropathy is produced in rats using the chronic constriction injury model described in Bennett et al., Pain (1988) 33:87-107. CCI is produced in anesthetized rats as follows. The lateral aspect of each rat's hind limb is shaved and scrubbed with Nolvasan. Using aseptic techniques, an incision is made on the lateral aspect of the hind limb at the mid-thigh level. The biceps femoris is bluntly dissected to expose the sciatic nerve. On the right hind limb of each rat, four loosely tied ligatures (for example, Chromic gut 4.0; Ethicon, Johnson and Johnson, Somerville, N.J.) are made around the sciatic nerve approximately 1-2 mm apart. On the left side of each rat, an identical dissection is performed except that the sciatic nerve is not ligated (sham). The muscle is closed with a continuous suture pattern with, e.g., 4-0 Vicryl (Johnson and Johnson, Somerville, N.J.) and the overlying skin is closed with wound clips. The rats are ear-tagged for identification purposes and returned to animal housing.
To induce allodynia, male Sprague-Dawley rats underwent chronic constriction injury (CCI) to the sciatic nerve as described by Bennett and Xie, Pain 1988; 33(1):87-107. The plantar surface of the hind paws was stimulated with von Frey filaments (Stoelting) to induce a withdrawal response by blinded personnel. The bending force of fiber required to induce a 50% withdrawal response was calculated following CCI surgery (pre-dosing baseline). N=5-6 allodynic rats received a single intraperitoneal administration of test compound or vehicle. Two hours post-dosing, 50% paw withdrawal threshold was determined again by blinded testers using von Frey filaments. The change in 50% withdrawal threshold relative to pre-dosing baseline is reported in Table 2 for various substituted pyrazolo[1,5-a]pyridine compounds of the invention.
Take `COc1nn2ccccc2c1C(=O)C(C)C` [Compound 1055, 1-(2-methoxypyrazolo[1,5-a]pyridin-3-yl)-2-methylpropan-1-one]: the “Mechanical Allodynia ΔWT (change from pre-dosing 50% withdrawal threshold)” value is listed as 10 mg/kg: 2.80 grams.
The same measure, in the same setting: then `CC(O)C(=O)c1c(C(C)C)nn2ccccc12` (centres unmarked) [Compound 1068, 2-hydroxy-1-(2-isopropylpyrazolo[1,5-a]pyridin-3-yl)propan-1-one], with 0.7 grams; and `CC(C)c1nn2ccccc2c1-c1ccc(N2CCOCC2)cc1` [Compound 1102, 2-Isopropyl-3-(4-morpholin-4-yl-phenyl)-pyrazolo[1,5-a]pyridine], with 0 grams.
For `CC(C)Nc1nccc(-c2c(C(C)C)nn3ccccc23)n1` [compound 1137, isopropyl-[4-(2-isopropylpyrazolo[1,5-a]pyridin-3-yl)-pyrimidin-2-yl]-amine], the “Mechanical Allodynia ΔWT (change from pre-dosing 50% withdrawal threshold)” value stood at 3.26 grams.
On the same count and under the same terms, the result for `CC(C)c1nn2ccccc2c1-c1ccncc1` [compound 1103, 2-Isopropyl-3-pyridin-4-yl-pyrazolo[1,5-a]pyridine] reads 1.54 grams.
The same measure, in the same setting: the result for `CC(=O)c1c(C(C)C)nn2ccccc12` [Compound 1080, 1-(2-isopropylpyrazolo[1,5-a]pyridin-3-yl)ethanone] reads 1.14 grams.
As to `CC(C)c1nn2ccccc2c1-c1c[nH]c(=S)[nH]1` [compound 1085, 4-(2-isopropylpyrazolo[1,5-a]pyridin-3-yl)-1H-imidazole-2(3H)-thione], the “Mechanical Allodynia ΔWT (change from pre-dosing 50% withdrawal threshold)” value came out at 1.93 grams.
The same measure, in the same setting: the result for `CCC(=O)c1c(-c2ccc(F)cc2)nn2ccccc12` [Compound 1070, 1-(2-(4-fluorophenyl)pyrazolo[1,5-a]pyridin-3-yl)propan-1-one] reads 0 grams; that for `COC(C)C(=O)c1c(C(C)C)nn2ccccc12` (centres unmarked) [Compound 1069, 1-(2-isopropylpyrazolo[1,5-a]pyridin-3-yl)-2-methoxypropan-1-one], 0.13 grams; that for `CC(=O)SC(C)C(=O)c1c(C(C)C)nn2ccccc12` (centres unmarked) [Compound 1081, S-1-(2-isopropylpyrazolo[1,5-a]pyridin-3-yl)-1-oxopropan-2-yl ethanethioate], 0.07 grams.
`CC(C)c1nn2ccccc2c1/C=N/NC(N)=O` [Compound 1074, (E)-2-((2-isopropylpyrazolo[1,5-a]pyridin-3-yl)methylene)hydrazinecarboxamide]: the “Mechanical Allodynia ΔWT (change from pre-dosing 50% withdrawal threshold)” value came out at 3.64 grams and the “Observation noted beside the allodynia value” was “lethargy”.
In the case of `CC(NCc1ccccc1)C(=O)c1c(C(C)C)nn2ccccc12` (centres unmarked) [compound 1071, 2-(benzylamino)-1-(2-isopropylpyrazolo[1,5-a]pyridin-3-yl)propan-1-one], the “Mechanical Allodynia ΔWT (change from pre-dosing 50% withdrawal threshold)” value came to 0.57 grams.
Take `CC(C)c1nn2ccccc2c1C=O` [Compound 1073, 2-isopropylpyrazolo[1,5-a]pyridine-3-carbaldehyde]: the “Mechanical Allodynia ΔWT (change from pre-dosing 50% withdrawal threshold)” value stood at 0 grams.
Still for that read-out and setting: the result for `CCCCC(N)C(=O)c1c(C(C)C)nn2ccccc12` (centres unmarked) [Compound 1077, 2-amino-1-(2-isopropylpyrazolo[1,5-a]pyridin-3-yl)hexan-1-one] reads 0.41 grams.
`CC(C)c1nn2ccccc2c1-c1ccnc(N)n1` [Compound 1139, 4-(2-Isopropyl-pyrazolo[1,5-a]pyridin-3-yl)-pyrimidin-2-ylamine]: the “Mechanical Allodynia ΔWT (change from pre-dosing 50% withdrawal threshold)” value amounted to 0.21 grams.
With `CC(C)c1nn2ccccc2c1C(N)C(C)C` (centres unmarked) [Compound 1051, 1-(2-isopropylpyrazolo[1,5-a]pyridin-3-yl)-2-methylpropan-1-amine hydrochloride], the “Mechanical Allodynia ΔWT (change from pre-dosing 50% withdrawal threshold)” value is 0.29 grams.
For `CC(C)C(=O)c1c(N(C)C)nn2ccccc12` [Compound 1072, 1-(2-(dimethylamino)pyrazolo[1,5-a]pyridin-3-yl)-2-methylpropan-1-one], the “Mechanical Allodynia ΔWT (change from pre-dosing 50% withdrawal threshold)” value is 1.48 grams and the “Observation noted beside the allodynia value” is listed as “lethargy”.
Consider `CC(C)c1nn2ccccc2c1-c1cc[nH]n1` [Compound 1141, 2-isopropyl-3-(1H-pyrazol-3-yl)-pyrazolo[1,5-a]pyridine], for which the “Mechanical Allodynia ΔWT (change from pre-dosing 50% withdrawal threshold)” value is given as 1.04 grams.
For `COc1nn2ccccc2c1C(=O)C(C)N` (centres unmarked) [Compound 1057, 2-amino-1-(2-methoxypyrazolo[1,5-a]pyridin-3-yl)propan-1-one], the “Mechanical Allodynia ΔWT (change from pre-dosing 50% withdrawal threshold)” value is 0.06 grams.
The same measure, in the same setting: the result for `CC(C)c1nn2ccccc2c1-c1cccnc1` [Compound 1111, 2-Isopropyl-3-pyridin-3-yl-pyrazolo[1,5-a]pyridine] reads 0 grams.
On the same count and under the same terms, the result for `CC(C)CC(N)C(=O)c1c(C(C)C)nn2ccccc12` (centres unmarked) [Compound 1061, 2-amino-1-(2-isopropylpyrazolo[1,5-a]pyridin-3-yl)-4-methylpentan-1-one] reads 0 grams; that for `CC(C)c1nn2ccccc2c1-c1ccc(N)cc1` [Compound 1101, 4-(2-Isopropyl-pyrazolo[1,5-a]pyridin-3-yl)-phenylamine], 0.02 grams.
The same measure, in the same setting: the result for `CC(N)C(=O)c1c(N(C)C)nn2ccccc12` (centres unmarked) [Compound 1075, 2-amino-1-(2-(dimethylamino)pyrazolo[1,5-a]pyridin-3-yl)propan-1-one] reads 0.67 grams; that for `CC(N)C(=O)c1c(-c2ccc(F)cc2)nn2ccccc12` (centres unmarked) [Compound 1052, 2-amino-1-(2-(4-fluorophenyl)pyrazolo[1,5-a]pyridin-3-yl)propan-1-one hydrochloride], 10 mg/kg: 0.39 grams; that for `CC(C)c1nn2ccccc2c1-c1ccnc(NCCCO)n1` [Compound 1134, 3-[4-(2-Isopropyl-pyrazolo[1,5-a]pyridin-3-yl)-pyrimidin-2-ylamino]-propan-1-ol], 0 grams.
With `CC(C)c1nn2ccccc2c1-c1cccc(N)c1` [Compound 1100, 3-(2-isopropyl-pyrazolo[1,5-a]pyridin-3-yl)-phenylamine], the “Mechanical Allodynia ΔWT (change from pre-dosing 50% withdrawal threshold)” value was 0 grams.
Still for that read-out and setting: the result for `CCC(N)C(=O)c1c(C(C)C)nn2ccccc12` (centres unmarked) [Compound 1060, 2-amino-1-(2-isopropylpyrazolo[1,5-a]pyridin-3-yl)butan-1-one] reads 10 mg/kg: 1.87 grams.
`CC(C)c1nn2ccccc2c1-c1cn[nH]c1` [Compound 1104, 2-isopropyl-3-(1H-pyrazol-4-yl)-pyrazolo[1,5-a]pyridine]: the “Mechanical Allodynia ΔWT (change from pre-dosing 50% withdrawal threshold)” value amounted to 0.86 grams.
Take `C/C(=N/O)C(=O)c1c(C(C)C)nn2ccccc12` [Compound 1083, (Z)-2-(hydroxyimino)-1-(2-isopropylpyrazolo[1,5-a]pyridin-3-yl)propan-1-one]: the “Mechanical Allodynia ΔWT (change from pre-dosing 50% withdrawal threshold)” value stood at 0 grams.
Same read-out and setting: then `CC(C)c1nn2ccccc2c1-c1ccnc(NCCCN2CCN(C)CC2)n1` [Compound 1135, [4-(2-Isopropyl-pyrazolo[1,5-a]pyridin-3-yl)-pyrimidin-2-yl]-[3-(4-methyl-piperazin-1-yl)-propyl]-amine], with 0 grams.
For the molecule `CC(=O)OC(C)C(=O)c1c(C(C)C)nn2ccccc12` (centres unmarked) [Compound 1067, 1-(2-isopropylpyrazolo[1,5-a]pyridin-3-yl)-1-oxopropan-2-yl acetate], the “Mechanical Allodynia ΔWT (change from pre-dosing 50% withdrawal threshold)” value was 0.46 grams.
Still for that read-out and setting: then `COCC(N)C(=O)c1c(C(C)C)nn2ccccc12` (centres unmarked) [Compound 1082, 2-amino-1-(2-isopropylpyrazolo[1,5-a]pyridin-3-yl)-3-methoxypropan-1-one], with 0.5 grams.
With `CC(C)c1nn2ccccc2c1-c1cnn(C)c1` [Compound 1112, 2-Isopropyl-3-(1-methyl-1H-pyrazol-4-yl)-pyrazolo[1,5-a]pyridine], the “Mechanical Allodynia ΔWT (change from pre-dosing 50% withdrawal threshold)” value stood at 0 grams.

Staying with this data set, now noted: 20 mg/kg IP, 2 hr post dosing.
For the molecule `COc1nn2ccccc2c1C(=O)C(C)C` [Compound 1055, 1-(2-methoxypyrazolo[1,5-a]pyridin-3-yl)-2-methylpropan-1-one], the “Mechanical Allodynia ΔWT (change from pre-dosing 50% withdrawal threshold)” value is 20 mg/kg: 0 grams.
Same read-out and setting: then `CC(N)C(=O)c1c(-c2ccc(F)cc2)nn2ccccc12` (centres unmarked) [Compound 1052, 2-amino-1-(2-(4-fluorophenyl)pyrazolo[1,5-a]pyridin-3-yl)propan-1-one hydrochloride], with 20 mg/kg: 0.31 grams; and `CCC(N)C(=O)c1c(C(C)C)nn2ccccc12` (centres unmarked) [Compound 1060, 2-amino-1-(2-isopropylpyrazolo[1,5-a]pyridin-3-yl)butan-1-one], with 20 mg/kg: 0.74 grams.
